Laboratory results: patent publication US20260109732A1, “LIPID AMINES” (ModernaTX, Inc., priority 2021, published 2026)
Where a name gives a salt, the structure may show the parent alone.

Key:
HeLa cells [1] = assay: Luciferase Protein Expression Assay in HeLa Cells; format: cell-based, Human; settings: LNPs encapsulating Luciferase mRNA, 25 ng per well, N=4 wells; 5 h serum-free then 24 h; ONE-Glo
Method in brief: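 HeLa cells received LNPs carrying luciferase mRNA (25 ng per well) or PBS in serum-free MEM for 5 h, then complete MEM for a further 24 h. Luciferase then read by ONE-Glo luminescence after lysis and reported as average RLU of 4 replicate wells.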

[2] = Diameter and PDI from DLS measurements of mRNA nanoparticles with lipid amines; format: physicochemical
Method in brief: (§1)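 Ionizable lipid nanoparticles (IL1:DSPC:cholesterol:PEG-DMG-2K) formed by vortex mixing at pH 4, loaded with luciferase or CFTR mRNA at N:P 4.93, neutralized with TRIS pH 8.12, then modified with lipid amine SA50 at pH 7.5. Particle diameter and PDI read by DLS; mRNA encapsulation by Ribogreen assay.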

HeLa cells [3] = assay: CFTR Protein Expression Assay in HeLa Cells; format: cell-based, Human; settings: LNPs encapsulating CFTR mRNA, N=4 wells; 5 h serum-free then 24 h; immunofluorescence vs PBS control
Method in brief: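 HeLa cells dosed with CFTR mRNA LNPs (70 mM NaCl final buffer matrix) in serum-free MEM for 5 h, then complete MEM for 24 h. Fixed cells immunostained with anti-CFTR monoclonal and Alexa 488 secondary, imaged confocally; CFTR intensity per cell expressed as fold-change versus PBS buffer control, N=4 wells.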

[4] = Encapsulation of mRNA nanoparticles with lipid amines using Ribogreen assay; format: physicochemical
Method in brief: as §1

[5] = CFTR mRNA nanoparticle with lipid amine
[6] = Luciferase mRNA nanoparticle modified with lipid amine

Structure (SMILES)	Average Relative Light Units ± Standard Deviation (HeLa cells [1]) [Relative Light Units]	Diameter (nm) [2, 5] [nm]	PDI [2, 5]	Diameter (nm) [2, 6] [nm]	PDI [2, 6]	Average fold-change in CFTR signal intensity per cell compared to buffer control ± standard deviation (HeLa cells [3]) [fold-change]	% Encapsulation (Ribogreen) [4, 5] [%]	% Encapsulation (Ribogreen) [4, 6] [%]
CC(C)CCC[C@@H](C)[C@H]1CC[C@H]2[C@@H]3CC=C4C[C@@H](OC(=O)N(CCCN)CCCCCCCCN)CC[C@]4(C)[C@H]3CC[C@]12C [SA60, (3S,8S,9S,10R,13R,14S,17R)-10,13-Dimethyl-17-((R)-6-methylheptan-2-yl)-2,3,4,7,8,9,10,11,12,13,14,15,16,17-tetradecahydro-1H-cyclopenta[a]phenanthren-3-yl (8-aminooctyl)(3-aminopropyl)carbamate dihydrochloride]	30508.5 ± 6869.7	70.9	0.08	74	0.13	10.7 ± 0.1	99.5	98.8
CC(C)CCC[C@@H](C)[C@H]1CC[C@H]2[C@@H]3CC=C4C[C@@H](OC(=O)CCC(=O)N(CCCN)CCCCCCCCN)CC[C@]4(C)[C@H]3CC[C@]12C [SA72, (3S,8S,9S,10R,13R,14S,17R)-10,13-Dimethyl-17-((R)-6-methylheptan-2-yl)-2,3,4,7,8,9,10,11,12,13,14,15,16,17-tetradecahydro-1H-cyclopenta[a]phenanthren-3-yl 4-((8-aminooctyl)(3-aminopropyl)amino)-4-oxobutanoate dihydrochloride]	30826.5 ± 5913.2	73.0	0.11	72	0.11	6.6 ± 0.6	99.8	99.1
CC(C)CCC[C@@H](C)[C@H]1CC[C@H]2[C@@H]3CC=C4C[C@@H](OC(=O)N(CCCCNCC(C)CN)CC(C)CN)CC[C@]4(C)[C@H]3CC[C@]12C (stereo partly drawn) [SA75, (3S,8S,9S,10R,13R,14S,17R)-10,13-dimethyl-17-((R)-6-methylheptan-2-yl)-2,3,4,7,8,9,10,11,12,13,14,15,16,17-tetradecahydro-1H-cyclopenta[a]phenanthren-3-yl (3-amino-2-methylpropyl)(4-((3-amino-2-methylpropyl)amino)butyl)carbamate trihydrochloride]	37732.4 ± 6382.7	86.9	0.11	74	0.16	11.9 ± 0.6	100	98.8
CC(C)CCC[C@@H](C)[C@H]1CC[C@H]2[C@@H]3CC=C4C[C@@H](SSCCC(=O)N(CCCCCCCC(C)(C)N)CCC(C)(C)N)CC[C@]4(C)[C@H]3CC[C@]12C.Cl.Cl [SA139, N-(3-amino-3-methylbutyl)-N-(8-amino-8-methylnonyl)-3-(((3S,8S,9S,10R,13R,14S,17R)-10,13-dimethyl-17-((R)-6-methylheptan-2-yl)-2,3,4,7,8,9,10,11,12,13,14,15,16,17-tetradecahydro-1H-cyclopenta[a]phenanthren-3-yl)disulfaneyl)propanamide dihydrochloride]	24497.9 ± 3998.9	68.9	0.12	72	0.12	13.3 ± 1.2	99.4	99.4
